Results taken from ChEMBL document CHEMBL1132885, “Phosphate prodrugs of PD154075” (Bioorg Med Chem Lett, 2000).

What was measured:
Rattus norvegicus [1] = assay: In vivo percentage of prodrug (Compound) reconversion to PD-154075 from (male Wistar rat) plasma after intravenous administration of the 5.3 mg/mL compound; assay type: functional
[2] = Solubility in water was determined; assay type: physicochemical
Rattus norvegicus [3] = assay: In vivo percentage of prodrug (Compound) reconversion to PD-154075 from (male Wistar rat) plasma after intravenous administration of the 5.7 mg/ml compound; assay type: functional
Rattus norvegicus [4] = assay: In vivo percentage of prodrug (Compound) reconversion to PD-154075 from (male Wistar rat) plasma after intravenous administration of the 5 mg/ml compound; assay type: functional
Rattus norvegicus [5] = assay: In vivo percentage of prodrug (Compound) reconversion to PD-154075 from (male Wistar rat) plasma after intravenous administration of the 4.6 mg/ml compound; assay type: functional

solubility [2] [mg/mL]	SMILES	Prodrug reconversion (Rattus norvegicus [1]) [%]	Prodrug reconversion (Rattus norvegicus [3]) [%]	Prodrug reconversion (Rattus norvegicus [4]) [%]	Prodrug reconversion (Rattus norvegicus [5]) [%]
58	C[C@@H](NC(=O)[C@@](C)(Cc1cn(C(=O)OCOC(=O)c2ccc(COP(=O)([O-])[O-])cc2)c2ccccc12)NC(=O)OCc1cc2ccccc2o1)c1ccccc1.[Na+].[Na+]	59.5			
76	C[C@@H](NC(=O)[C@@](C)(Cc1cn(P(=O)([O-])[O-])c2ccccc12)NC(=O)OCc1cc2ccccc2o1)c1ccccc1.[Na+].[Na+]		11.7		
< 0.001	CC(NC(=O)[C@@](C)(Cc1c[nH]c2ccccc12)NC(=O)OCc1cc2ccccc2o1)c1ccccc1 (single isomer, unassigned)				
55	C[C@@H](NC(=O)[C@@](C)(Cc1cn(C(=O)c2ccccc2COP(=O)([O-])[O-])c2ccccc12)NC(=O)OCc1cc2ccccc2o1)c1ccccc1.[Na+].[Na+]				19.9

SMILES	solubility [2] [mg/mL]	Prodrug reconversion (Rattus norvegicus [1]) [%]	Prodrug reconversion (Rattus norvegicus [3]) [%]	Prodrug reconversion (Rattus norvegicus [4]) [%]	Prodrug reconversion (Rattus norvegicus [5]) [%]
Cc1cc(C)c(C(C)(C)CC(=O)n2cc(C[C@@](C)(NC(=O)OCc3cc4ccccc4o3)C(=O)N[C@H](C)c3ccccc3)c3ccccc32)c(OP(=O)([O-])[O-])c1.[Na+].[Na+]	31			9.35	
